Test results from patent US20080194574A1, “Pyrazine Derivatives As Effective Compounds Against Infectious Diseases” (AXXIMA PHARMACEUTICALS AG, priority 2003, published 2008).

Biological target: T1, viral kinase pUL-97 (Human cytomegalovirus, UniProt P16788)
T1 construct: The pUL-97 gene was cloned into a baculovirus vector; GST (glutathione S-transferase) (N); made in house; host or cells: Sf9 insect cells, baculovirus
Test: UL97 kinase assay on Immobilon plate
Format: biochemical
Settings: inhibition of UL 97 kinase activity; class by IC50 / % inhibition at 10 μM or 100 μM; read-out: Activity Class [A, B, C]
Description: UL97 Kinase-Assay on Immobilon Plate
The effect of pyrazine derivatives of this invention was tested on the activity of the viral kinase pUL-97. This kinase is derived from human cytomegalovirus (HCMV) (M. Marschall et al., Journal of General Virology, 2001, 82, 1439-1450). The pUL-97 gene was cloned into a baculovirus vector in order to produce GST (glutathione S-transferase) fusion protein. Insect cells (Sf9) were infected and GST-UL-97 purified via glutathione affinity columns according to standard procedures.
The pUL-97 kinase reaction was performed as described (M. Marschall et al., Journal of General Virology, 2001, 82, 1439-1450). Briefly, 10 μl Assay buffer (3 μM ATP, 60 μg/ml myelin basic protein (MBP) as substrate), 1.0 μCi γ-[^33P]ATP and 10 μl Basic buffer (20 mM Tris-HCl pH7.5, 0.5 mM MnCl2, 1 mM DTT (Dithiothreitol)) were given to the test tube before adding various concentrations of pyrazine derivatives. The reaction was started by adding 0.2 μl pUL-97 kinase, purified from infected Sf9-insect cells as described above. The total volume was adjusted with Basic buffer to a final volume of 30 μl. The reaction mix was incubated for 1 hr at 30° C. For negative control, 10 μl 0.1M EDTA (Ethylene Diamine tetraacetate) was added to reaction mix before addition of pUL-97 protein kinase. The reaction was stopped by addition of 10 μl 0.1 M EDTA.
Measuring Incorporation of Radioactivity:
The Immobilon plate (Millipore) was rinsed with 50 μl methanol/well. Following addition of 100 μl 0.1 M EDTA, 20 μl of each kinase reaction mix was added to one well of the Immobilon plate. Each well was washed 4× with 250 μl 0.75% phosphoric acid and 1× with 50 μl methanol. After addition of 50 μl scintillation cocktail (Roth, Germany) per well incorporation of radioactivity was measured using a Betareader (Wallac) and enzymatic activity calculated.

T1 sequence (P16788 whole entry): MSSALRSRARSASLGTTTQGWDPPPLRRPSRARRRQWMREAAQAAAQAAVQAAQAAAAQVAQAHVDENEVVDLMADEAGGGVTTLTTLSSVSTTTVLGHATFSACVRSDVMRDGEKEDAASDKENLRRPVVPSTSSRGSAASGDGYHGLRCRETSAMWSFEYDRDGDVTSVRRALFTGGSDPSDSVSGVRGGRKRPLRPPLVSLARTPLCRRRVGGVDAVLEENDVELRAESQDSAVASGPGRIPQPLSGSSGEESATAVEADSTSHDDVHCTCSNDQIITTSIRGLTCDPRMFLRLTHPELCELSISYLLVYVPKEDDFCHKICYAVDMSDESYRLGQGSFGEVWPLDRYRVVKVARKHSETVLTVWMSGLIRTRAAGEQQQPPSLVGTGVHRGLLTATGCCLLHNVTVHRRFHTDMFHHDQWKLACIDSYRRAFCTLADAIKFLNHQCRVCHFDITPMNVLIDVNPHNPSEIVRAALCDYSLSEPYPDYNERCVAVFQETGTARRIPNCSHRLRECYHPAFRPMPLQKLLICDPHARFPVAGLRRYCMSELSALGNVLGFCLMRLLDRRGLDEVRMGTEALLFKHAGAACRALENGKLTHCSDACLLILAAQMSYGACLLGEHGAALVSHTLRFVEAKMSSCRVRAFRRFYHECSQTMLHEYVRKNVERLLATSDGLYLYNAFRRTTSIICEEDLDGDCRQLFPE

Cc1cccc(-c2cncc(N3CCN(c4ccc(Cl)cc4)CC3)n2)c1 [compound 325, 4-(4-Chloro-phenyl)-6′-m-tolyl-3,4,5,6-tetrahydro-2H-[1,2′]bipyrazinyl] and Cc1cccc(-c2cncc(N3CCN(c4ccccc4)CC3)n2)c1 [compound 244, 4-Phenyl-6′-m-tolyl-3,4,5,6-tetrahydro-2H-[1,2′]bipyrazinyl] fall in the same range of IC50: 10 to 100 µM for the first, 10 to 100 µM for the second.

Compared with COc1ccccc1N1CCN(c2cncc(-c3csc4ccccc34)n2)CC1 [compound 243, 6′-Benzo[b]thiophen-3-yl-4-(2-methoxy-phenyl)-3,4,5,6-tetrahydro-2H-[1,2′]bipyrazinyl], Fc1ccc(N2CCN(c3cncc(-c4csc5ccccc45)n3)CC2)cc1 [compound 235, 6′-Benzo[b]thiophen-3-yl-4-(4-fluoro-phenyl)-3,4,5,6-tetrahydro-2H-[1,2′]bipyrazinyl] is lower in IC50: 10 to 100 µM for the first, 1 to 10 µM for the second. The second is the more potent here.

COc1ccc(N2CCN(c3cncc(-c4ccc(C)cc4)n3)CC2)cc1OC [compound 224, 4-(3,4-Dimethoxy-phenyl)-6′-p-tolyl-3,4,5,6-tetrahydro-2H-[1,2′]bipyrazinyl] and COc1ccc(N2CCN(c3cncc(-c4ccsc4)n3)CC2)cc1OC [compound 261, 4-(3,4-Dimethoxy-phenyl)-6′-thiophen-3-yl-3,4,5,6-tetrahydro-2H-[1,2′]bipyrazinyl] fall in the same range of IC50: 1 to 10 µM for the first, 1 to 10 µM for the second.

First: COc1cccc(N2CCN(c3cncc(-c4ccoc4)n3)CC2)c1 [compound 324, 6′-Furan-3-yl-4-(3-methoxy-phenyl)-3,4,5,6-tetrahydro-2H-[1,2′]bipyrazinyl]
Second: COc1cccc(N2CCN(c3cncc(-c4ccc(SC)cc4)n3)CC2)c1 [compound 369, 4-(3-Methoxy-phenyl)-6′-(4-methylsulfanyl-phenyl)-3,4,5,6-tetrahydro-2H-[1,2′]bipyrazinyl]
The IC50 of the first is higher: 10 to 100 µM for the first, 1 to 10 µM for the second.

First: CN(C)c1ccc(-c2cncc(N3CCN(c4cccc(C(F)(F)F)c4)CC3)n2)cc1 [compound 216, Dimethyl-{4-[4-(3-trifluoromethyl-phenyl)-3,4,5,6-tetrahydro-2H-[1,2′]bipyrazinyl-6′-yl]-phenyl}-amine]
Second: CSc1ccc(-c2cncc(N3CCN(c4ccc(C)c(C)c4)CC3)n2)cc1 [compound 359, 4-(3,4-Dimethyl-phenyl)-6′-(4-methylsulfanyl-phenyl)-3,4,5,6-tetrahydro-2H-[1,2′]bipyrazinyl]
The IC50 of the first is higher: 10 to 100 µM for the first, 1 to 10 µM for the second.

Cc1cccc(N2CCN(c3cncc(-c4ccc5ccccc5c4)n3)CC2C)c1 (stereo not drawn) [compound 347, 3-Methyl-6′-naphthalen-2-yl-4-m-tolyl-3,4,5,6-tetrahydro-2H-[1,2′]bipyrazinyl] and Cc1cccc(-c2cncc(N3CCN(c4ccccn4)CC3)n2)c1 [compound 327, 4-Pyridin-2-yl-6′-m-tolyl-3,4,5,6-tetrahydro-2H-[1,2′]bipyrazinyl] fall in the same range of IC50: 10 to 100 µM for the first, 10 to 100 µM for the second.

c1ccc(C2CCN(c3cncc(-c4cccc5ccccc45)n3)CC2)cc1 [compound 318, 2-Naphthalen-1-yl-6-(4-phenyl-piperidin-1-yl)-pyrazine] and CCOc1ccccc1-c1cncc(N2CCN(c3ccc(C(C)=O)cc3)CC2)n1 [compound 212, 1-{4-[6′-(2-Ethoxy-phenyl)-2,3,5,6-tetrahydro-[1,2′]bipyrazinyl-4-yl]-phenyl}-ethanone] fall in the same range of IC50: 10 to 100 µM for the first, 10 to 100 µM for the second.

Fc1cc(-c2cncc(N3CCN(c4cnccn4)CC3)n2)ccc1-c1ccccc1 [compound 334, 6-(2-Fluoro-biphenyl-4-yl)-2′,3′,5′,6′-tetrahydro-[2,1′;4′,2″]terpyrazine] and Cc1ccccc1-c1cncc(N2CCN(c3ccncc3)CC2)n1 [compound 256, 4-Pyridin-4-yl-6′-o-tolyl-3,4,5,6-tetrahydro-2H-[1,2′]bipyrazinyl] fall in the same range of IC50: 10 to 100 µM for the first, 10 to 100 µM for the second.

CC(=O)c1ccc(-c2cncc(N3CCN(c4cccc(C)c4C)CC3)n2)s1 [compound 296, 1-{5-[4-(2,3-Dimethyl-phenyl)-3,4,5,6-tetrahydro-2H-[1,2′]bipyrazinyl-6′-yl]-thiophen-2-yl}-ethanone] and CC(=O)c1cccc(-c2cncc(N3CCN(c4cccc(C)c4C)CC3)n2)c1 [compound 297, 1-{3-[4-(2,3-Dimethyl-phenyl)-3,4,5,6-tetrahydro-2H-[1,2′]bipyrazinyl-6′-yl]-phenyl}-ethanone] fall in the same range of IC50: 10 to 100 µM for the first, 10 to 100 µM for the second.

Same assay, conditions: inhibition of UL 97 kinase activity; class by IC50 / % inhibition at 10 or 100 μM; read-out: Activity Class [A, B, C]

Clc1cccc(N2CCN(c3cncc(-c4ccc5ccccc5c4)n3)CC2)c1 [compound 81, 4-(3-Chloro-phenyl)-6′-naphthalen-2-yl-3,4,5,6-tetrahydro-2H-[1,2′]bipyrazinyl] and Cc1ccc(N2CCN(c3cncc(-c4cc(C)cc(C)c4)n3)CC2)cc1 [compound 177, 6′-(3,5-Dimethyl-phenyl)-4-p-tolyl-3,4,5,6-tetrahydro-2H-[1,2′]bipyrazinyl] fall in the same range of IC50: 10 to 100 µM for the first, 10 to 100 µM for the second.

Compared with Fc1ccc(-c2cncc(N3CCN(c4ccncc4)CC3)n2)cc1 [compound 76, 6′-(4-Fluoro-phenyl)-4-pyridin-4-yl-3,4,5,6-tetrahydro-2H-[1,2′]bipyrazinyl], Cc1ccc(N2CCN(c3cncc(-c4ccc(N(C)C)cc4)n3)CC2)cc1 [compound 176, Dimethyl-[4-(4-p-tolyl-3,4,5,6-tetrahydro-2H-[1,2′]bipyrazinyl-6′-yl)-phenyl]-amine] is higher in IC50: 1 to 10 µM for the first, 10 to 100 µM for the second.

First: CN(C)c1cccc(-c2cncc(N3CCN(c4ccncc4)CC3)n2)c1 [compound 16, Dimethyl-[3-(4-pyridin-4-yl-3,4,5,6-tetrahydro-2H-[1,2′]bipyrazinyl-6′-yl)-phenyl]-amine]
Second: CC(=O)c1ccc(-c2cncc(N3CCN(c4ccncc4)CC3)n2)s1 [compound 65, 1-[5-(4-Pyridin-4-yl-3,4,5,6-tetrahydro-2H-[1,2′]bipyrazinyl-6′yl)-thiophen-2-yl]-ethanone]
The IC50 of the first is higher: 10 to 100 µM for the first, under 1 µM for the second.

Clc1ccc(-c2cncc(NCc3ccccc3)n2)cc1 [compound 27, Benzyl-[6-(4-chloro-phenyl)-pyrazin-2-yl]-amine] and CC(=O)c1ccccc1-c1cncc(N2CCN(c3cccc(C(F)(F)F)c3)CC2)n1 [compound 153, 1-{2-[4-(3-Trifluoromethyl-phenyl)-3,4,5,6-tetrahydro-2H-[1,2′]bipyrazinyl-6′-yl]-phenyl}-ethanone] fall in the same range of IC50: 10 to 100 µM for the first, 10 to 100 µM for the second.

Compared with NC(=O)c1ccc(-c2cncc(N3CCN(c4ccccc4)CC3)n2)cc1 [Comp. 68, 4-(4-Phenyl-3,4,5,6-tetrahydro-2H-[1,2′]bipyrazinyl-6′-yl)-benzamide], COc1ccccc1N1CCN(c2cncc(-c3ccc(N(C)C)cc3)n2)CC1 [compound 186, {4-[4-(2-Methoxy-phenyl)-3,4,5,6-tetrahydro-2H-[1,2′]bipyrazinyl-6′-yl]-phenyl}-dimethyl-amine] is higher in IC50: under 1 µM for the first, 10 to 100 µM for the second.

Compared with CCOc1ccccc1-c1cncc(N2CCN(c3ccc(C)cc3)CC2)n1 [compound 175, 6′-(2-Ethoxy-phenyl)-4-p-tolyl-3,4,5,6-tetrahydro-2H-[1,2′]bipyrazinyl], CC(=O)c1ccc(-c2cncc(N3CCN(c4cccc(Cl)c4)CC3)n2)cc1 [compound 103, 1-{4-[4-(3-Chloro-phenyl)-3,4,5,6-tetrahydro-2H-[1,2′]bipyrazinyl-6′-yl]-phenyl}-ethanone] is lower in IC50: 10 to 100 µM for the first, 1 to 10 µM for the second. The second is the more potent here.

Compared with Cc1ccccc1-c1cncc(N2CCN(c3ccccc3)CC2)n1 [compound 94, 4-Phenyl-6′-o-tolyl-3,4,5,6-tetrahydro-2H-[1,2′]bipyrazinyl], Fc1ccc(N2CCN(c3cncc(-c4ccc(C(F)(F)F)cc4)n3)CC2)cc1 [compound 180, 4-(4-Fluoro-phenyl)-6′-(4-trifluoromethyl-phenyl)-3,4,5,6-tetrahydro-2H-[1,2′]bipyrazinyl] is lower in IC50: 10 to 100 µM for the first, 1 to 10 µM for the second. The second is the more potent here.

Compared with COc1ccc(N2CCN(c3cncc(-c4ccc(C(F)(F)F)cc4)n3)CC2)cc1OC [compound 172, 4-(3,4-Dimethoxy-phenyl)-6′-(4-trifluoromethyl-phenyl)-3,4,5,6-tetrahydro-2H-[1,2′]bipyrazinyl], COc1ccc(N2CCN(c3cncc(-c4ccc(CN)cc4)n3)CC2)cc1OC [compound 60, 4-[4-(3,4-Dimethoxy-phenyl)-3,4,5,6-tetrahydro-2H-[1,2′]bipyrazinyl-6′-yl]-benzylamine] is higher in IC50: 1 to 10 µM for the first, 10 to 100 µM for the second. The first is the more potent here.

NC(=O)c1ccc(-c2cncc(N3CCN(C(=O)c4ccco4)CC3)n2)cc1 [compound 34, 4-[4-(Furan-2-carbonyl)-3,4,5,6-tetrahydro-2H-[1,2′]bipyrazinyl-6′-yl]-benzamide] and “6′-Benzo[b]thiophen-2-yl-4-pyridin-4-yl-3,4,5,6-tetrahydro-2H-[1,2′]bipyrazinyl [compound 69]” cannot be ordered by IC50: under 1 µM for the first, under 1 µM for the second.
